Experimental data reported in patent publication US12275712B2, “Triterpene derivatives as HIV inhibitors” (HETERO LABS LIMITED, priority 2019, dated 2025).
Where two headings read alike, the source gives them in different places.

Tests used:
pNL4-3 V7A = experiment: Antiviral activity against pNL4-3 V7A strain in MT4 cells (p24 estimation); type: cell-based, HIV-1; settings: Human immunodeficiency virus 1, MT4, 96 h, read-out: pNL4-3 V7A IC50
Procedure: (§1) MT4 cells were Transfected with HIV-1 Plasmid (pNL4-3-WT & V7A) (Cells were incubating with required number of TCID50 of HIV-1 for 1.5 h at 37° C.). After infection, the infected cells were plated at the concentration of 3×10^4 cells per well in 96 well plate. Test compound was added to the test plate in defined format with the final concentration of DMSO is not more than 1%. Incubation was carried out in CO2 incubator for 4 days for viral infection. At the end of incubation period an aliquot from each well was taken for p24 estimation. p24 estimation was carried out using Advance biosciences kit as per the procedure detailed by supplier.

HIV-1 strain 92HT599 = experiment: Antiviral activity against HIV-1 strain 92HT599 in MT2 cells (p24 estimation); type: cell-based
Procedure: MT2 cells were infected with HIV-1 strain 92HT599 (10 TCID 50/30000 cells). The infected cells were plated at the concentration of ˜30,000 cells per well in 96 well plate. Test compound was added to the micro plate in defined format with the final concentration of DMSO (vehicle) is not more than 1%. Incubation was carried out in CO2 incubator for ˜96 hours for viral infection. At the end of incubation period an aliquot from each well was taken for p24 estimation. The quantitation of p24 is an index for antiviral activity of the compound. Percent inhibition was calculated with reference to control values (vehicle controls). p24 estimation was carried out using Advance biosciences kit as per the procedure detailed by supplier.
The IC50 (nM) values are set forth in below Table-1.

pNL4-3 WT = experiment: Antiviral activity against pNL4-3 WT strain in MT4 cells (p24 estimation); type: cell-based, HIV-1; settings: Human immunodeficiency virus 1, MT4, 96 h, read-out: pNL4-3 WT IC50
Procedure: as §1

[1] = Human immunodeficiency virus 1, HIV-1 strain 92HT599, MT2 cells, ~96 hours, p24, read-out: IC50

Row | Compound | IC50 (pNL4-3 V7A) [nM] | IC50 (HIV-1 strain 92HT599; [1]) [nM] | IC50 (pNL4-3 WT) [nM] | IC50 (HIV-1 strain 92HT599; Human immunodeficiency virus 1, MT2, 96 h) [nM]
1 | CC1([C@@H]2CC[C@]3(NCC(C)(C)N4CCS(=O)(=O)CC4)CC[C@]4(C)[C@H](CC[C@@H]5[C@@]6(C)CC[C@H](OC(=O)[C@H]7C[C@@H](C(=O)O)C7(C)C)C(C)(C)[C@@H]6CC[C@]54C)[C@@H]23)CC1 [Example 1, (1R,3S)-3-((((1R,3aS,5aR,5bR,7aR,9S,11aR,11bR,13aR,13bR)-3a-((2-(1,1-dioxidothiomorpholino)-2-methylpropyl)amino)-5a,5b,8,8,11a-pentamethyl-1-(1-methylcyclopropyl)icosahydro-1H-cyclopentachrysen-9-yl)oxy)carbonyl)-2,2-dimethyl cyclobutane-1-carboxylic acid] | > 100 | > 20 | > 50 | –
2 | C[C@@H](CN[C@]12CC[C@@H](C3(C)CC3)[C@@H]1[C@H]1CC[C@@H]3[C@@]4(C)CC[C@H](OC(=O)[C@H]5C[C@@H](C(=O)O)C5(C)C)C(C)(C)[C@@H]4CC[C@@]3(C)[C@]1(C)CC2)N1CCS(=O)(=O)CC1 [Example 2, (1R,3S)-3-((((1R,3aS,5aR,5bR,7aR,9S,11aR,11bR,13aR,13bR)-3a-(((S)-2-(1,1-dioxidothiomorpholino)propyl)amino)-5a,5b,8,8,11a-pentamethyl-1-(1-methylcyclopropyl)icosahydro-1H-cyclopentachrysen-9-yl)oxy)carbonyl)-2,2-dimethyl cyclobutane-1-carboxylic acid] | 1 to 50 | < 10 | < 10 | –
3 | CC(C)[C@H](CN[C@]12CC[C@@H](C3(C)CC3)[C@@H]1[C@H]1CC[C@@H]3[C@@]4(C)CC[C@H](OC(=O)[C@H]5C[C@@H](C(=O)O)C5(C)C)C(C)(C)[C@@H]4CC[C@@]3(C)[C@]1(C)CC2)N1CCS(=O)(=O)CC1 [Example 3, (1R,3S)-3-((((1R,3aS,5aR,5bR,7aR,9S,11aR,11bR,13aR,13bR)-3a-(((R)-2-(1,1-dioxidothiomorpholino)-3-methylbutyl)amino)-5a,5b,8,8,11a-pentamethyl-1-(1-methylcyclopropyl)icosahydro-1H-cyclopenta[a]chrysen-9-yl)oxy)carbonyl)-2,2-dimethyl cyclobutane-1-carboxylic acid] | > 100 | > 20 | > 50 | –
4 | CC1([C@@H]2CC[C@]3(NC[C@H](CO[Si](C)(C)C(C)(C)C)N4CCS(=O)(=O)CC4)CC[C@]4(C)[C@H](CC[C@@H]5[C@@]6(C)CC[C@H](OC(=O)[C@H]7C[C@@H](C(=O)O)C7(C)C)C(C)(C)[C@@H]6CC[C@]54C)[C@@H]23)CC1 [Example 4, (1R,3S)-3-((((1R,3aS,5aR,5bR,7aR,9S,11aR,11bR,13aR,13bR)-3a-(((R)-3-((tert-butyldimethylsilyl)oxy)-2-(1,1-dioxidothiomorpholino)propyl)amino)-5a,5b, 8,8,11a-pentamethyl-1-(1-methylcyclopropyl)icosahydro-1H-cyclopenta[a]chrysen-9-yl)oxy)carbonyl)-2,2-dimethylcyclobutane-1-carboxylic acid] | > 100 | – | > 50 | 10 to 20
5 | CC1([C@@H]2CC[C@]3(NC[C@H](CO)N4CCS(=O)(=O)CC4)CC[C@]4(C)[C@H](CC[C@@H]5[C@@]6(C)CC[C@H](OC(=O)[C@H]7C[C@@H](C(=O)O)C7(C)C)C(C)(C)[C@@H]6CC[C@]54C)[C@@H]23)CC1 [Example 5, (1R,3S)-3-((((1R,3aS,5aR,5bR,7aR,9S,11aR,11bR,13aR,13bR)-3a-(((R)-2-(1,1-dioxidothiomorpholino)-3-hydroxypropyl)amino)-5a,5b,8,8,11a-pentamethyl-1-(1-methylcyclopropyl)icosahydro-1H-cyclopenta[a]chrysen-9-yl)oxy)carbonyl)-2,2-dimethylcyclobutane-1-carboxylic acid] | 1 to 50 | < 10 | < 10 | –
6 | CC(C)[C@@H](CN[C@]12CC[C@@H](C3(C)CC3)[C@@H]1[C@H]1CC[C@@H]3[C@@]4(C)CC[C@H](OC(=O)[C@H]5C[C@@H](C(=O)O)C5(C)C)C(C)(C)[C@@H]4CC[C@@]3(C)[C@]1(C)CC2)N1CCS(=O)(=O)CC1 [Example 6, (1R,3S)-3-((((1R,3aS,5aR,5bR,7aR,9S,11aR,11bR,13aR,13bR)-3a-(((S)-2-(1,1-dioxidothiomorpholino)-3-methylbutyl)amino)-5a,5b,8,8,11a-pentamethyl-1-(1-methylcyclopropyl)icosahydro-1H-cyclopentachrysen-9-yl)oxy)carbonyl)-2,2-dimethylcyclobutane-1-carboxylic acid] | 1 to 50 | < 10 | 10 to 50 | –
7 | C[C@@H](O)[C@@H](CN[C@]12CC[C@@H](C3(C)CC3)[C@@H]1[C@H]1CC[C@@H]3[C@@]4(C)CC[C@H](OC(=O)[C@H]5C[C@@H](C(=O)O)C5(C)C)C(C)(C)[C@@H]4CC[C@@]3(C)[C@]1(C)CC2)N1CCS(=O)(=O)CC1 [Example 7, (1R,3S)-3-((((1R,3aS,5aR,5bR,7aR,9S,11aR,11bR,13aR,13bR)-3a-(((2R,3R)-2-(1,1-dioxidothiomorpholino)-3-hydroxybutyl)amino)-5a,5b,8,8,11a-pentamethyl-1-(1-methylcyclopropyl)icosahydro-1H-cyclopentachrysen-9-yl)oxy)carbonyl)-2,2-dimethylcyclobutane-1-carboxylic acid] | 1 to 50 | < 10 | < 10 | –
8 | CC1([C@@H]2CC[C@]3(NC[C@@H](CO)N4CCS(=O)(=O)CC4)CC[C@]4(C)[C@H](CC[C@@H]5[C@@]6(C)CC[C@H](OC(=O)[C@H]7C[C@@H](C(=O)O)C7(C)C)C(C)(C)[C@@H]6CC[C@]54C)[C@@H]23)CC1 [Example 8, (1R,3S)-3-((((1R,3aS,5aR,5bR,7aR,9S,11aR,11bR,13aR,13bR)-3a-(((S)-2-(1,1-dioxidothiomorpholino)-3-hydroxypropyl)amino)-5a,5b,8,8,11a-pentamethyl-1-(1-methylcyclopropyl)icosahydro-1H-cyclopenta[a]chrysen-9-yl)oxy)carbonyl)-2,2-dimethylcyclobutane-1-carboxylic acid] | 1 to 50 | < 10 | < 10 | –
9 | CC1([C@@H]2CC[C@]3(NC[C@@H](CF)N4CCS(=O)(=O)CC4)CC[C@]4(C)[C@H](CC[C@@H]5[C@@]6(C)CC[C@H](OC(=O)[C@H]7C[C@@H](C(=O)O)C7(C)C)C(C)(C)[C@@H]6CC[C@]54C)[C@@H]23)CC1 [Example 9, (1R,3S)-3-((((1R,3aS,5aR,5bR,7aR,9S,11aR,11bR,13aR,13bR)-3a-(((S)-2-(1,1-dioxidothiomorpholino)-3-fluoropropyl)amino)-5a,5b,8,8,11a-pentamethyl-1-(1-methylcyclopropyl)icosahydro-1H-cyclopentachrysen-9-yl)oxy)carbonyl)-2,2-dimethyl cyclobutane-1-carboxylic acid] | 50 to 100 | < 10 | 10 to 50 | –
